Measured values reported in patent publication US10206907B2, “Compounds useful for the treatment of degenerative and inflammatory diseases” (GALAPAGOS NV, priority 2008, dated 2019).

How the values were obtained:
[1] = biological target: Recombinant human JAK2 catalytic domain (Homo sapiens (Human), UniProt O60674); assay: JAK2 inhibition assay; type: biochemical; settings: semi-quantitative score
Description: After 90 min at 30° C., reactions were stopped by adding of 25 μL/well of 150 mM phosphoric acid. […] Plates were washed 6 times with 300 μL per well of a 75 mM phosphoric acid solution and the bottom of the plates was sealed. 40 μL/well of Microscint-20 was added, the top of the plates was sealed and readout was performed using the Topcount (Perkin Elmer). Kinase activity was calculated by subtracting counts per minute (cpm) obtained in the presence of a positive control inhibitor (10 μM staurosporine) from cpm obtained in the presence of vehicle. The ability of a test compound to inhibit this activity was determined as: Percentage inhibition=((cpm determined for sample with test compound present−cpm determined for sample with positive control inhibitor) divided by (cpm determined in the presence of vehicle−cpm determined for sample with positive control inhibitor))*100%.
Dose dilution series were prepared for the compounds enabling the testing of dose-response effects in the JAK2 assay and the calculation of the IC50 for each compound.

[2] = biological target: Recombinant human JAK1 catalytic domain (Homo sapiens (Human), UniProt P23458); assay: JAK1 inhibition assay; type: biochemical; settings: semi-quantitative score
Description: Plates were washed 6 times with 300 μL per well of a 75 mM phosphoric acid solution and the bottom of the plates was sealed. 40 μL/well of Microscint-20 was added, the top of the plates was sealed and readout was performed using the Topcount (Perkin Elmer). Kinase activity was calculated by subtracting counts per minute (cpm) obtained in the presence of a positive control inhibitor (10 μM staurosporine) from cpm obtained in the presence of vehicle. The ability of a test compound to inhibit this activity was determined as: Percentage inhibition=((cpm determined for sample with test compound present−cpm determined for sample with positive control inhibitor) divided by (cpm determined in the presence of vehicle−cpm determined for sample with positive control inhibitor))*100%.
Dose dilution series were prepared for the compounds enabling the testing of dose-response effects in the JAK1 assay and the calculation of the IC50 for each compound.

Recombinant human JAK1 catalytic domain, sequence (P23458 850-1154): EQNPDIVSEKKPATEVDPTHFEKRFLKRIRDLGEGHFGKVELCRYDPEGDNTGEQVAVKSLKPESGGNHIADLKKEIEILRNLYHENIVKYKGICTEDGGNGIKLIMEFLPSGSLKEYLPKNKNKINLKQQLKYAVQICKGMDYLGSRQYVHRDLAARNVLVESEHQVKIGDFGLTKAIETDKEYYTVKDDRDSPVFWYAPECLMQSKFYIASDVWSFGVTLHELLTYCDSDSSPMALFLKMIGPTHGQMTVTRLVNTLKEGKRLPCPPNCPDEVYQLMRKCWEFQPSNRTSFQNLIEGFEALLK
Recombinant human JAK2 catalytic domain, sequence (O60674 808-1132): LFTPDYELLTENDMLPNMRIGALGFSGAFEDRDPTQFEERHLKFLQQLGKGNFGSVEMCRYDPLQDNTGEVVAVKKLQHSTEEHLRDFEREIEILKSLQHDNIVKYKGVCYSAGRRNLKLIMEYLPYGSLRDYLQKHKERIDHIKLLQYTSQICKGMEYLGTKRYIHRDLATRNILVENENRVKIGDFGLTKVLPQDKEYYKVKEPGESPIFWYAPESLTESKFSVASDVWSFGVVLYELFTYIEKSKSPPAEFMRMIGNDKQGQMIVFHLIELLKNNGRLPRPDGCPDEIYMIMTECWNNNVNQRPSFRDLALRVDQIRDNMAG

SMILES	IC50 [1] [nM]	IC50 [2] [nM]
CCN1C[C@H]2C[C@@H]1CN2Cc1ccc(-c2cccc3nc(NC(=O)C4CC4)nn23)cc1 [Compound 253, Cyclopropanecarboxylic acid {5-[4-((1R,4R)-5-ethyl-2,5-diaza-bicyclo[2.2.1]hept-2-ylmethyl)-phenyl]-[1,2,4]triazolo[1,5-a]pyridin-2-yl}-amide]	501 to 1000	
N#Cc1ccc(NCc2ccc(-c3cccc4nc(NC(=O)C5CC5)nn34)cc2)c(F)c1 [Compound 258, Cyclopropanecarboxylic acid (5-{4-[(4-cyano-2-fluoro-phenylamino)-methyl]-phenyl}-[1,2,4]triazolo[1,5-a]pyridin-2-yl)-amide]	< 100	
O=C(Nc1nc2cccc(-c3ccc(CN4CCC(CO)CC4)cc3)n2n1)C1CC1 [Compound 250, Cyclopropanecarboxylic acid {5-[4-(4-hydroxymethyl-piperidin-1-ylmethyl)-phenyl]-[1,2,4]triazolo[1,5-a]pyridin-2-yl}-amide]	501 to 1000	101 to 500
Cn1nc(C2CC2)cc1NC(=O)c1ccc(-c2cccc3nc(NC(=O)C4CC4)nn23)cc1 [Compound 218, 4-[2-(Cyclopropanecarbonyl-amino)-[1,2,4]triazolo[1,5-a]pyridin-5-yl]-N-(5-cyclopropyl-2-methyl-2H-pyrazol-3-yl)-benzamide]	101 to 500	101 to 500
C[C@@H]1CN(Cc2ccc(-c3cccc4nc(NC(=O)C5CC5)nn34)cc2)C[C@H](C)O1 [Compound 214, Cyclopropanecarboxylic acid {5-[4-((2R,6S)-2,6-dimethyl-morpholin-4-ylmethyl)-phenyl]-[1,2,4]triazolo[1,5-a]pyridin-2-yl}-amide]	101 to 500	101 to 500
O=C(Nc1nc2cccc(-c3ccc(CN4CCCC4)cc3)n2n1)C1CC1 [Compound 260, Cyclopropanecarboxylic acid [5-(4-pyrrolidin-1-ylmethyl-phenyl)-[1,2,4]triazolo[1,5-a]pyridin-2-yl]-amide]	101 to 500	
Cc1ccc(NCc2ccc(-c3cccc4nc(NC(=O)C5CC5)nn34)cc2)c(F)n1 [Compound 256, Cyclopropanecarboxylic acid (5-{4-[(2-fluoro-6-methyl-pyridin-3-ylamino)-methyl]-phenyl}-[1,2,4]triazolo[1,5-a]pyridin-2-yl)-amide]	101 to 500	
COc1ccc(C(N)=O)cc1NCc1ccc(-c2cccc3nc(NC(=O)C4CC4)nn23)cc1 [Compound 255, 3-{4-[2-(Cyclopropanecarbonyl-amino)-[1,2,4]triazolo[1,5-a]pyridin-5-yl]-benzylamino}-4-methoxy-benzamide]	501 to 1000	
O=C(Nc1nc2cccc(-c3ccc(CNc4ccccc4)cc3)n2n1)C1CC1 [Compound 261, Cyclopropanecarboxylic acid [5-(4-phenylaminomethyl-phenyl)-[1,2,4]triazolo[1,5-a]pyridin-2-yl]-amide]	101 to 500	
O=C(Nc1nc2cccc(-c3ccc(CN4CCCCC4)cc3)n2n1)C1CC1 [Compound 139, N-(5-(4-(pipcridin-1-ylmethyl)phenyl)-[1,2,4]triazolo[1,5-a]pyridin-2-yl)cyclopropanecarboxamide]		501 to 1000
O=C(Nc1nc2cccc(-c3ccc(OCc4ccc(N5CCOCC5)nc4)cc3)n2n1)C1CC1 [Compound 165]		101 to 500
O=C(Nc1nc2cccc(-c3cn(Cc4ccc(C(F)(F)F)nc4)nn3)n2n1)C1CC1 [Compound 188]		> 1000
Cc1nn(C)cc1S(=O)(=O)Nc1ccc(-c2cccc3nc(NC(=O)C4CC4)nn23)cc1 [Compound 65, N-(5-(4-(1,3-dimethyl-1H-pyrazole-4-sulfonamido)phenyl)-[1,2,4]triazolo[1,5-a]pyridin-2-yl)cyclopropanecarboxamide]		101 to 500
CN(Cc1cccnc1)c1ccc(-c2cccc3nc(NC(=O)C4CC4)nn23)cc1 [Compound 162, N-(5-(4-(methyl(pyridin-3-ylmethyl)amino)phenyl)-[1,2,4]triazolo[1,5-a]pyridin-2-yl)cyclopropanecarboxamide]		> 1000
O=C(Nc1nc2cccc(-c3ccc(CN4CCN(c5ncccn5)CC4)cc3)n2n1)C1CC1 [Compound 143, N-(5-(4-((4-(pyrimidin-2-yl)piperazin-1-yl)methyl)phenyl)-[1,2,4]triazolo[1,5-a]pyridin-2-yl)cyclopropanecarboxamide]		101 to 500
O=C(Nc1nc2cccc(-c3ccc(CN4CCOCC4=O)cc3)n2n1)C1CC1 [Compound 254, Cyclopropanecarboxylic Acid {5-[4-(3-oxo-morpholin-4-ylmethyl)-phenyl]-[1,2,4]triazolo[1,5-a]pyridin-2-yl}-amide]	501 to 1000	
COc1ccccc1C1CCN(C(=O)c2ccc(-c3cccc4nc(NC(=O)C5CC5)nn34)cc2)CC1 [Compound 131, N-(5-(4-(4-(2-methoxyphenyl)piperidine-1-carbonyl)phenyl)-[1,2,4]triazolo[1,5-a]pyridin-2-yl)cyclopropanecarboxamide]		101 to 500
O=C(Nc1nc2cccc(-c3ccc(C(=O)N4CCC(O)(c5ccc(Cl)cc5)CC4)cc3)n2n1)C1CC1 [Compound 132]		101 to 500
NC(=O)c1cccc(OCc2ccc(-c3cccc4nc(NC(=O)C5CC5)nn34)cc2)c1 [Compound 251, 3-{4-[2-(Cyclopropanecarbonyl-amino)-[1,2,4]triazolo[1,5-a]pyridin-5-yl]-benzyloxy}-benzamide]	101 to 500	
CCCc1cc(C(=O)Nc2ccc(-c3cccc4nc(NC(=O)C5CC5)nn34)cc2)n(C)n1 [Compound 69]		101 to 500

Next, values leading:

IC50 [1] [nM]	IC50 [2] [nM]	SMILES
> 1000	101 to 500	CN1CCN(C(=O)NCc2ccc(-c3cccc4nc(NC(=O)C5CC5)nn34)cc2)CC1 [Compound 308, 4-Methyl-piperazine-1-carboxylic acid 4-[2-(cyclopropanecarbonyl-amino)-[1,2,4]triazolo[1,5-a]pyridin-5-yl]-benzylamide]
101 to 500		CC(=O)N(C)C1CCN(Cc2ccc(-c3cccc4nc(NC(=O)C5CC5)nn34)cc2)C1 (stereo not drawn) [Compound 262, Cyclopropanecarboxylic acid (5-{4-[3-(acetyl-methyl-amino)-pyrrolidin-1-ylmethyl]-phenyl}-[1,2,4]triazolo[1,5-a]pyridin-2-yl)-amide]
101 to 500		O=C(Nc1nc2cccc(-c3ccc(CN4CCC(F)(F)C4)cc3)n2n1)C1CC1 [Compound 264, Cyclopropanecarboxylic acid {5-[4-(3,3-difluoro-pyrrolidin-1-ylmethyl)-phenyl]-[1,2,4]triazolo[1,5-a]pyridin-2-yl}-amide]
101 to 500	101 to 500	O=C(Nc1nc2cccc(-c3ccc(CC(=O)N4CCC4)cc3)n2n1)C1CC1 [Compound 318, Cyclopropanecarboxylic acid {5-[4-(2-azetidin-1-yl-2-oxo-ethyl)-phenyl]-[1,2,4]triazolo[1,5-a]pyridin-2-yl}-amide]
> 1000	101 to 500	CCOC1CCN(Cc2ccc(-c3cccc4nc(NC(=O)C5CC5)nn34)cc2)CC1 [Compound 282, Cyclopropanecarboxylic acid {5-[4-(4-ethoxy-piperidin-1-ylmethyl)-phenyl]-[1,2,4]triazolo[1,5-a]pyridin-2-yl}-amide]
101 to 500	101 to 500	CC1CC(C)CN(C(=O)Cc2ccc(-c3cccc4nc(NC(=O)C5CC5)nn34)cc2)C1 (stereo not drawn) [Compound 320, Cyclopropanecarboxylic acid (5-{4-[2-(3,5-dimethyl-piperidin-1-yl)-2-oxo-ethyl]-phenyl}-[1,2,4]triazolo[1,5-a]pyridin-2-yl)-amide]
> 1000	101 to 500	CC1(C)CN(Cc2ccc(-c3cccc4nc(NC(=O)C5CC5)nn34)cc2)C1 [Compound 314, Cyclopropanecarboxylic acid {5-[4-(3,3-dimethyl-azetidin-1-ylmethyl)-phenyl]-[1,2,4]triazolo[1,5-a]pyridin-2-yl}-amide]
> 1000	> 1000	CC(=O)NC1CN(C(=O)Cc2ccc(-c3cccc4nc(NC(=O)C5CC5)nn34)cc2)C1 [Compound 322, Cyclopropanecarboxylic acid (5-{4-[2-(3-acetylamino-azetidin-1-yl)-2-oxo-ethyl]-phenyl}-[1,2,4]triazolo[1,5-a]pyridin-2-yl)-amide]
101 to 500		CN(C)C1CCN(Cc2ccc(-c3cccc4nc(NC(=O)C5CC5)nn34)cc2)C1 (stereo not drawn) [Compound 263]
> 1000	101 to 500	O=C(Nc1nc2cccc(-c3ccc(CN4CC[C@@H](O)C4)cc3)n2n1)C1CC1 [Compound 307, Cyclopropanecarboxylic acid {5-[4-((R)-3-hydroxy-pyrrolidin-1-ylmethyl)-phenyl]-[1,2,4]triazolo[1,5-a]pyridin-2-yl}-amide]
> 1000	101 to 500	CCOC1CCN(C(=O)c2ccc(-c3cccc4nc(NC(=O)C5CC5)nn34)cc2)CC1 [Compound 294, Cyclopropanecarboxylic acid {5-[4-(4-ethoxy-piperidine-1-carbonyl)-phenyl]-[1,2,4]triazolo[1,5-a]pyridin-2-yl}-amide]
